Results on two compounds are retold here after patent US12466807B2, “Salt and crystal form of a FAK inhibitor” (Amplia Therapeutics Limited, priority 2019, dated 2025).

A short description of data set [1]: Salt disproportionation studies. It is filed as physicochemical. Here is the method:
Salt disproportionation studies were carried out as follows: • Approximately 10-20 mg of Formula I free base, L-tartrate Pattern 1 were weighed into HPLC vials. • 1 mL deionized water was then added to each vial and the vials capped and shaken at ambient temperature for 24 hours. • After this time, the samples were transferred to centrifuge tubes with nylon filters (0.22 μm) and centrifuged for approximately 15 minutes. The isolated solids were analyzed by XRPD and the filtrates analyzed by HPLC for concentration determination and the pH of all the filtrates were measured with a pH meter.

Data set [2] is described as follows: Oral exposure (pharmacokinetics) in rats. To be noted: rat. In kind it is in vivo, male Sprague Dawley rats. On the procedure:
To compare the exposure of the compound of Formula I in male Sprague Dawley rats following oral administration of the free base and L-tartrate salt at a target dose of 20 mg/kg (as free base equivalent).
Further details of the in-life, formulation and bioanalytical procedures together with the data analysis, are described in Appendix 1.
In-Life • The exposure of Formula I was studied in overnight-fasted male Sprague Dawley rats that had access to water ad libitum throughout the pre- and post-dose sampling period, and access to food was re-instated 4 h post-dose. In-life details are provided in Table A1-1. • Samples of arterial blood and total urine were collected up to 48 h post-dose. Arterial blood was collected directly into borosilicate vials (at 4° C.) containing heparin, Complete® (a protease inhibitor cocktail) and potassium fluoride to minimise potential for ex vivo degradation of Formula I in blood/plasma samples. Once collected, blood samples were centrifuged, supernatant plasma was removed and stored frozen (−80° C.) until analysis by LC-MS.
The extraction of the test compound from plasma samples was conducted using protein precipitation with acetonitrile. Both solution and plasma standards were freshly prepared, with each set of standards comprising at least seven different analyte concentrations. Solution standards were diluted from a stock solution (1 mg/mL in DMSO) with 50% acetonitrile in water. Plasma standards were prepared by spiking blank plasma (50 μL) with solution standards (10 μL) and the internal standard, diazepam (10 μL, 5 μg/mL).
Plasma samples were similarly prepared, except that blank acetonitrile (10 μL) was added instead of solution standards. Protein precipitation was carried out by the addition of acetonitrile (120 μL), vortexing (20 s) and centrifugation (10,000 rpm) in a microcentrifuge for 3 minutes. The supernatant was subsequently separated and 3 μL injected directly onto the column for LC/MS analysis using conditions tabulated below. All plasma concentrations are expressed as the non-salt equivalent.
Standard Calculations • Plasma concentration versus time data were analysed using non-compartmental methods (PKSolver Version 2.0). Standard calculations for each pharmacokinetic parameter are listed below.
(§1) [formula] • AUCIV Area under the plasma concentration versus time profile from time zero to infinity after IV administration (reported previously: CDCO_FAK_11_031) • t1/2 Elimination half-life • λ2 Terminal elimination rate constant after IV administration • BA Oral bioavailability • AUCoral Area under the plasma concentration versus time profile from time zero to infinity after oral administration • Cmax Maximum plasma concentration observed after oral administration. • Tmax Time to achieve Cmax • Differences in pharmacokinetic parameters (t½, AUC, Cmax, Tmax and BA) between free base and L-tartrate salt were evaluated using an unpaired t-test testing for significance at α=0.05 (GraphPad Prism, version 7.01)

The nature of data set [3]: Thermodynamic solubility studies. In kind it is physicochemical. To be noted: for solubility thermodynamic at 24 h: buffer, 22 °C, thermodynamic from solid; for HPLC Conc: ca. 22° C.
Protocol: Thermodynamic Solubility Studies were carried out as follows: • Approximately 10 mg of Formula I free base Pattern 1 and L-tartrate Pattern 1, were weighed into a 1.5 mL screw-cap vial. The appropriate buffer system was added to create a slurry and the vials were shaken at ambient temperature (ca. 22° C.) for approximately 24 hours. • After this time, the slurries were transferred to centrifuge tubes containing nylon filters (0.22 μm) and filtered using a centrifuge for ca. 10 minutes. The isolated solids were then analyzed by XRPD and the filtrates measured by a pH meter and analyzed by HPLC for concentration.
A short description of data set [4]: Dynamic/gravimetric vapour sorption (DVS/GVS) hygroscopicity. The following applies: at 90% R.H., 25° C. It is filed as physicochemical. On the procedure: Approximately 10-20 mg of sample was placed into a mesh vapour sorption balance pan and loaded into the DVS-1 dynamic vapour sorption balance by Surface Measurement Systems. The sample was subjected to a ramping profile from 40-90% relative humidity (RH) at 10% increments, maintaining the sample at each step until a stable weight had been achieved (dm/dt 0.004%, minimum step length 30 minutes, maximum step length 500 minutes) at 25° C. After completion of the sorption cycle, the sample was dried using the same procedure to 0% RH and then a second sorption cycle back to 40% RH. Two cycles were performed. The weight change during the sorption/desorption cycles were plotted, allowing for the hygroscopic nature of the sample to be determined. XRPD analysis was then carried out on any solid retained.
Approximately 10-20 mg of sample was placed into a mesh vapour sorption balance pan and loaded into an IGASorp Moisture Sorption Analyser balance by Hiden Analytical. The sample was subjected to a ramping profile from 40-90% relative humidity (RH) at 10% increments, maintaining the sample at each step until a stable weight had been achieved (98% step completion, minimum step length 30 minutes, maximum step length 60 minutes) at 25° C. After completion of the sorption cycle, the sample was dried using the same procedure to 0% RH, and finally taken back to the starting point of 40% RH. Two cycles were performed. The weight change during the sorption/desorption cycles were plotted, allowing for the hygroscopic nature of the sample to be determined.

Data set [5] in a line: IV pharmacokinetics in rats (reported previously). In kind it is in vivo, male Sprague Dawley rats. To be noted: IV 4.48 mg/kg, rat.
From the text: as §1

The mark [6] stands for this setting: PO 20 mg/kg (free base equivalent), mean ± SD, n = 3, 20 mg/kg.

The structures appear in SMILES notation. Converted amounts (≈) assume the structure as drawn. Where two headings read alike, the source gives them in different places.

The term Tmax denotes the time at which the peak concentration occurs. The term Cmax denotes the maximum level reached in the sampled fluid or tissue. A word on the thermodynamic solubility: it is solubility found after equilibrating the solid with the medium. For `COc1cc(C2CCN(C)CC2)ccc1Nc1ncc(C(F)(F)F)c(CCc2ccccc2CC(N)=O)n1` [Free base], in data set [1] (deionized water, 24 h, ambient temperature), the “Water pH Post-24 h” value came to 5.63. In addition, the “XRPD Result” value in data set [1] (solid after 24 h in deionized water) is “Free Base”; in data set [3] (pH 1.0, solid after 24 h slurry, listed as Free Base) it was “Possible HCl Salt”; in data set [3] (pH 1.0, solid after 24 h slurry, listed as free base), “possible HCl salt”; in data set [3] (pH 4.5, solid after 24 h slurry), “Free Base”; in data set [3] (pH 6.8, solid after 24 h slurry), “Alternate crystalline form”; in data set [3] (pH 6.8, solid after 24 h slurry, listed as Formula I free base), “change in XRPD pattern”. In addition, in data set [3] (water, solid after 24 h slurry), the “XRPD Result” value is recorded as “Free Base”. The BA in data set [2] (setting [6]) is reported as 48.6 ± 9.2%. The Tmax was 5.0 ± 0.0 h in data set [2] (setting [6]) and 5 to 7 h in data set [2] (male, Sprague Dawley, plasma, po, 20 mg/kg, PO 20 mg/kg (free base equivalent), mean ± SD, n = 3, read-out: Tmax). Besides, the “Adverse reactions or compound-related side effects” value in data set [2] (PO 20 mg/kg, 48 h sampling period) is “No adverse reactions or compound-related side effects were observed”. For the same compound, the “% Dose in urine (unchanged Formula I)” value in data set [2] (PO 20 mg/kg, pooled urine up to 48 h, 20 mg/kg) came out at 0.208 ± 0.24%. Besides, the maximum concentration (Cmax) in data set [2] (male, Sprague Dawley, plasma, po, 20 mg/kg, PO 20 mg/kg (free base equivalent), mean ± SD, n = 3) was determined as 934 ± 260 nM. The half-life in data set [2] (male, Sprague Dawley, plasma, po, 20 mg/kg, PO 20 mg/kg (free base equivalent), mean ± SD, n = 3, read-out: Apparent t1/2 (converted)) was 336 ± 6 min. In addition, in data set [2] (male, Sprague Dawley, plasma, po, 20 mg/kg, PO 20 mg/kg (free base equivalent), mean ± SD, n = 3, read-out: Plasma AUC0-inf), the AUC(0-inf) is 9.93 ± 1.9 µM·h. Also, in data set [2] (plasma and urine after PO 20 mg/kg, not quantified), the “N-demethylation metabolite of Formula I” value was “detected in plasma and urine”. Moreover, the results for the “Thermodynamic Solubility” value in data set [3] (Water) and in data set [3] (pH 4.5) were under 0.1 mg/mL and 11.9 mg/mL, respectively. In addition, the “pH Post-24 h Slurry” value in data set [3] (Water) was determined as 5.63; in data set [3] (pH 1.0), 1.37; in data set [3] (pH 4.5), 5.60; in data set [3] (pH 6.8), 7.44. Besides, the thermodynamic solubility at 24 h was 300 µg/mL (≈ 569 µM) in data set [3] (pH 1, simulated gastric fluid, pH 1.0) and under 100 µg/mL in data set [3] (pH 6.8, aqueous buffer, pH 6.8). The “HPLC Conc” value is on record as 0.3 mg/mL in data set [3] (pH 1.0, 24 h slurry); 11.9 mg/mL in data set [3] (pH 4.5, 24 h slurry); 11.9 mg/mL in data set [3] (pH 4.5, 24 h slurry, listed as Formula I free base); under 0.1 mg/mL in data set [3] (pH 6.8, 24 h slurry, listed as Free Base); under 0.1 mg/mL in data set [3] (pH 6.8, 24 h slurry, listed as free base); under 0.1 mg/mL in data set [3] (water, 24 h slurry). The “HPLC Conc” value in data set [3] (water, 24 h slurry, listed as Formula I free base) is reported as under 0.1 mg/mL. The “Hygroscopicity, mass uptake (DVS/GVS)” value in data set [4] is “Uptake of 5 wt %”.

For the compound `COc1cc(C2CCN(C)CC2)ccc1Nc1ncc(C(F)(F)F)c(CCc2ccccc2CC(N)=O)n1` [Formula I], the “% Dose in urine (unchanged Formula I)” value in data set [5] (pooled urine up to 24 h) stood at 1.14%. The half-life in data set [5] (male, Sprague Dawley, plasma, mean of n = 2, read-out: Apparent t1/2 (converted)) is 288 min. For the same compound, the AUC(0-inf) in data set [5] (male, Sprague Dawley, plasma, mean of n = 2, read-out: Plasma AUC0-inf) came to 4.57 µM·h.
